In patent publication US6441036B1 (priority 1998, dated 2002):

What was measured:
[1] = Lipid lowering effect in obese Zucker fa/fa rats (Example 3); type: in vivo; conditions: 300 mg/day/kg by gavage once daily for 10 days; control palmitic acid
Description: (§1) Glucose (GLU, Boehringer Mannheim, Germany), free fatty acids (NEFA, C ACS-ACOD kit; Wako Chemicals, Dalton, USA) and b-hydroxybutyrate (310-A kit; Sigma Diagnostics Inc., St. Louis, USA) concentrations were measured using enzymatic methods. Insulin concentrations were determined with radioimmunoassay by (CIS bio International, Gif sur Yvette, France) using rat insulin as standard in the Zucker rats. In the Wistar Charles River rats, plasma glucose concentrations were measured with the aid of Beckman Glucose Analyzer (Fullerton, Calif., USA). Plasma insulin levels were measured using a RIA kit from Linco Research Inc. (St. Charles, Mo., USA). Phospholipids were measured by the enzymatic method of bioMérieux, Marcy-l{grave over ( )}Etoile, France, Triacylglycerol by the Technicon Method no. SA4-0324L90, USA and Cholesterol by the Technicon Method no. SA4-0305L90, USA.
(§2) Male obese Zucker fa/fa rats, weighing 100 g at the start of the experiment, were housed in pairs in metal wire cages in a room maintained at 12 h light-dark cycles and a constant temperature of 20±3° C. The animals were acclimatised for at least one week under these conditions before the start of the experiment.
TTA (tetradecylthioacetic acid) prepared in accordance with procedure described previously, and palmitic acid (control), was suspended in 0.5% (w/v) carboxymethyl cellulose (CMC). Six animals were used in both groups. TTA (tetradecylthioacetic acid) and palmitic acid were administered at a dose of 300 mg/day/kg body weight, by gastric intubation (gavage) once daily for 10 days. The rats were fasted for 2 hours before termination of the experiment. Blood and organs were collected. Lipid concentrations in plasma were determined using an autoanalyzer, as described in the method section.

[2] = Fatty acid composition in liver and plasma of obese Zucker fa/fa rats (Example 19); type: in vivo; conditions: 300 mg/day/kg by gavage once daily for 10 days
Description: as §2, with “20±°” for “20±3°”
TTA and palmitic acid (control), was suspended in 0.5% (w/v) carboxymethyl cellulose (CMC) and administered at a dose of 300 mg/day/kg body weight, by gastric intubation (gavage) once daily for 10 days. The rats were fasted for 2 hours before termination of the experiment. Blood and organs were collected. Total lipids were extracted from liver and plasma. The lipids were evaporated, saponified and esterified prior to separation using a Carlo Erba 2900 gas-chromatograph.

[3] = Body weight of normal rats after 12 weeks (Example 6); type: in vivo; conditions: male Wistar rats, oral, 12 weeks of treatment
Description: 2 groups of 6 male Wistar Rats were randomly selected, and studied for weight development over a period of 12 week. The body weight of each Wistar rat was measured at the start of the experiment. All animals in both groups received individually the same amount of food (nutrition) during the experimental period of 12 weeks. All animals in one of the groups were orally administrated with the medicament comprising TTA. The other group was the control group (CMC). After the 12 week period the body weight of rats were measured again.

[4] = Plasma free fatty acids and ketone bodies in old obese Zucker rats; type: in vivo, obese Zucker (fa/fa) rats; conditions: 21 week-old male rats, standard diet enriched with 0.15% TTA for 15 days; means ± SD
Description: as §1
Data are means±SD of six animals in both the control- and the experimental group. Free fatty acids (FFA) and ketone bodies (4-hydroxy butyrate)were measured in plasma and 3-hydroxy-3-methylglutaryl (HMG)—CoA synthase activities were measured in mitochondrial fractions prepared from the liver from 21 week-old male obese Zucker (fa/fa) rats given either a standard diet (control) or a standard diet enriched with 0.15% TTA for 15 days.

Escherichia coli = assay: Test for mutagenic activity in Escherichia coli strains; type: cell-based; conditions: 3-1000 mg/plate (TTA), 2-5000 mg/plate (TSA)
Excerpt: (§3) Tests for mutagenic activity have been performed by Covance Laboratories Limited, England. […] Furthermore, TTA was not mutagenic when tested in mouse lymphoma cells […] L5178Y.

[5] = Weight reduction in dogs (Example 10); type: in vivo; conditions: male dogs, 500 mg/kg/day orally in capsules
Description: 3 male dogs (4-6 months old) were housed singly during the days. Each animal was offered 400g of SQC Diet A each morning after dosing and any residue diet was removed in the afternoon. The drug was administered orally in capsules once daily for 28 days.

[6] = tested on: mouse lymphoma cells, L5178Y; assay: Mutagenicity test in mouse lymphoma cells L5178Y; type: cell-based; conditions: concentration 2.5-50 mg/ml
Excerpt: as §3

[7] = 28 days toxicity study in dogs (GLP); type: in vivo
Excerpt: A 28 days toxicity study in dogs according to GLP guide-lines has been performed by Corning Hazleton (Europe), England. […] Some lipid related parameters were lowered in the animals given high dosages. This is consistent with the pharmacological activity of TTA.

[8] = Blood insulin and glucose in 5 weeks old Zucker (fa/fa) rats (Example 13); type: in vivo; conditions: 300 mg/kg/day by oral gavage, 11 days
Description: as §1
The rats were administered TTA at a dose of 300 mg/kg/day suspended in 0.5% CMC (n=6) by oral gavage. Following 11 days of treatment, rats were killed by cervical dislocation. Blood was collected and the levels of insulin and glucose measured as indicated in the method section. Data are means±S.D.

[9] = High fat diet feeding, adipose tissue weights (Example 5); type: in vivo, Wistar Charles River rats; conditions: high fat diet + 0.4% TTA, three weeks; means ± SEM
Description: Male Wistar rats Charles River rats weighing 280-358 g were purchases from AnLab Ltd. (Prague, Czech Repubic) and housed in wire-mesh cages in a temperature (22±1° C.) and light-controlled (light from 7:00 a.m. to 7.00 p.m.) room. They were given free access to chow and water. Three rats were housed per cage. Weight gain and food intake were recorded daily.
High fat (HF): 1.9% gelatin, 5.7% wheat bran, 7.7% vitamins and minerals, 25.4% corn starch, 25.7% casein, 26.8% beef tallow and 7.1 % sunflower oil.
HF+TTA: Same +0.4% TTA dissolved in the beef tallow.
Male Wistar Charles River rats (280-360 g) were fed 3 different diets (see methods) for 3 weeks ad libitum. Afterwards, they were killed by decapitation, liver and epididymal adipose tissue pads were dissected out and weighed.

For Tetradecylthioacetic acid [TTA], the “Decreased lipid level in plasma: Cholesterol” value [1] was 73 % of control, the “Decreased lipid level in plasma: Phospholipids” value [1] was 71 % of control and the “Decreased lipid level in plasma: Triglycerides” value [1] was 72 % of control. For the same substance, the “Fatty acid composition in liver: Monounsaturated tetradecylthioacetic acid” value [2] was 1.1 ± 0.2 % of total, the “Fatty acid composition in liver: Oleic acid” value [2] was 14.9 ± 1.0 % of total and the “Fatty acid composition in plasma: Monounsaturated tetradecylthioacetic acid” value [2] was 0.2 ± 0.1 % of total. The “Fatty acid composition in plasma: Oleic acid” value [2] was 22.1 ± 0.5 % of total, the Body weight gain [3] was 234 ± 20 g and the “4-OH butyrate (plasma ketone bodies)” value [4] was 3.44 ± 1.37 mmol/L. The “FFA (plasma free fatty acids)” value [4] was 0.53 ± 0.21 mEq/L, the Induction of mutations (Escherichia coli) was “did not induce mutations” and the Mean body weight ([5]; week 0) was 9.22 kg. It also gave a Mean body weight ([5]; week 1) of 8.95 kg, a Mean body weight ([5]; week 2) of 8.75 kg and a Mean body weight ([5]; week 3) of 8.58 kg. The Mean body weight ([5]; week 4) was 8.50 kg, the Mutagenicity [6] was “not mutagenic” and the Lipid related parameters ([7]; animals given high dosages) was “lowered”. The Body weight ([7]; dose level of 500 mg/kg/day) was “body weight loss”, the Evidence of toxicity ([7]; dose levels of 50 or 500 mg/day/kg, 28 days) was “no evidence of toxicity” and the Tolerability ([7]; oral administration, dose levels up to 500 mg/kg/day, 28 days) was “generally well tolerated”. The “Reduction of blood concentration of glucose (FIG. 5)” value [8] was roughly 15%, the “Reduction of blood insulin concentration (FIG. 5)” value [8] was roughly 40% and the Epididymal adipose tissue [9] was 3.1 ± 0.2 g. It also gave a Retroperitoneal adipose tissue [9] of 2.7 ± 0.2 g.
